Laboratory results as given in ChEMBL document CHEMBL1147101, “Development and persistence of antimicrobial resistance in Pseudomonas aeruginosa: a longitudinal observation in mechanically ventilated patients” (Antimicrob Agents Chemother, 2007).
Calls of active or inactive are those of the source. The rule behind the calls is not given here.

What was measured:
Format in all cases: functional, organism-based
Conditions in all cases: Trachea
Pseudomonas aeruginosa [1] = experiment: Antimicrobial activity against Pseudomonas aeruginosa 22D9 tracheal isolates from mechanically ventilated chronic respiratory insufficiency patient
Pseudomonas aeruginosa [2] = experiment: Antimicrobial activity against Pseudomonas aeruginosa 10B1 tracheal isolates from mechanically ventilated chronic respiratory insufficiency patient
Pseudomonas aeruginosa [3] = experiment: Antimicrobial activity against Pseudomonas aeruginosa 3B1 tracheal isolates from mechanically ventilated tuberculosis patient
Pseudomonas aeruginosa [4] = experiment: Antimicrobial activity against Pseudomonas aeruginosa P21.23 tracheal isolates from mechanically ventilated tuberculosis patient
Pseudomonas aeruginosa [5] = experiment: Antimicrobial activity against Pseudomonas aeruginosa 15H5 tracheal isolates from mechanically ventilated chronic respiratory insufficiency patient
Pseudomonas aeruginosa [6] = experiment: Antimicrobial activity against Pseudomonas aeruginosa 65.68-2 tracheal isolates from mechanically ventilated tuberculosis patient
Pseudomonas aeruginosa [7] = experiment: Antimicrobial activity against Pseudomonas aeruginosa 65.68-3 tracheal isolates from mechanically ventilated tuberculosis patient
Pseudomonas aeruginosa [8] = experiment: Antimicrobial activity against Pseudomonas aeruginosa 3D10 tracheal isolates from mechanically ventilated chronic respiratory insufficiency patient
Pseudomonas aeruginosa [9] = experiment: Antimicrobial activity against Pseudomonas aeruginosa 16D5 tracheal isolates from mechanically ventilated chronic respiratory insufficiency patient
Pseudomonas aeruginosa [10] = experiment: Antimicrobial activity against Pseudomonas aeruginosa 65.38-1 tracheal isolates from mechanically ventilated tuberculosis patient
Pseudomonas aeruginosa [11] = experiment: Antimicrobial activity against Pseudomonas aeruginosa 65.36-2 tracheal isolates from mechanically ventilated tuberculosis patient
Pseudomonas aeruginosa [12] = experiment: Antimicrobial activity against Pseudomonas aeruginosa 10B3 tracheal isolates from mechanically ventilated chronic respiratory insufficiency patient
Pseudomonas aeruginosa [13] = experiment: Antimicrobial activity against Pseudomonas aeruginosa 2C2 tracheal isolates from mechanically ventilated tuberculosis patient
Pseudomonas aeruginosa [14] = experiment: Antimicrobial activity against Pseudomonas aeruginosa 19E9 tracheal isolates from mechanically ventilated chronic respiratory insufficiency patient
Pseudomonas aeruginosa [15] = experiment: Antimicrobial activity against Pseudomonas aeruginosa 22E3 tracheal isolates from mechanically ventilated chronic respiratory insufficiency patient
Pseudomonas aeruginosa [16] = experiment: Antimicrobial activity against Pseudomonas aeruginosa 19E2 tracheal isolates from mechanically ventilated chronic respiratory insufficiency patient
Pseudomonas aeruginosa [17] = experiment: Antimicrobial activity against Pseudomonas aeruginosa 22D6 tracheal isolates from mechanically ventilated chronic respiratory insufficiency patient
Pseudomonas aeruginosa [18] = experiment: Antimicrobial activity against Pseudomonas aeruginosa 65.33-4 tracheal isolates from mechanically ventilated tuberculosis patient
Pseudomonas aeruginosa [19] = experiment: Antimicrobial activity against Pseudomonas aeruginosa 13D11 tracheal isolates from mechanically ventilated chronic respiratory insufficiency patient
Pseudomonas aeruginosa [20] = experiment: Antimicrobial activity against Pseudomonas aeruginosa 1A9 tracheal isolates from mechanically ventilated tuberculosis patient
Pseudomonas aeruginosa [21] = experiment: Antimicrobial activity against Pseudomonas aeruginosa 2A7 tracheal isolates from mechanically ventilated tuberculosis patient
Pseudomonas aeruginosa [22] = experiment: Antimicrobial activity against Pseudomonas aeruginosa 3D1 tracheal isolates from mechanically ventilated chronic respiratory insufficiency patient
Pseudomonas aeruginosa [23] = experiment: Antimicrobial activity against Pseudomonas aeruginosa 65.33-2 tracheal isolates from mechanically ventilated tuberculosis patient
Pseudomonas aeruginosa [24] = experiment: Antimicrobial activity against Pseudomonas aeruginosa P21.21 tracheal isolates from mechanically ventilated tuberculosis patient
Pseudomonas aeruginosa [25] = experiment: Antimicrobial activity against Pseudomonas aeruginosa 9B5 tracheal isolates from mechanically ventilated chronic respiratory insufficiency patient
Pseudomonas aeruginosa [26] = experiment: Antimicrobial activity against Pseudomonas aeruginosa 12A3 tracheal isolates from mechanically ventilated chronic respiratory insufficiency patient
Pseudomonas aeruginosa [27] = experiment: Antimicrobial activity against Pseudomonas aeruginosa 13E1 tracheal isolates from mechanically ventilated chronic respiratory insufficiency patient
Pseudomonas aeruginosa [28] = experiment: Antimicrobial activity against Pseudomonas aeruginosa 5H6 tracheal isolates from mechanically ventilated chronic respiratory insufficiency patient
Pseudomonas aeruginosa [29] = experiment: Antimicrobial activity against Pseudomonas aeruginosa 65.33-1 tracheal isolates from mechanically ventilated tuberculosis patient
Pseudomonas aeruginosa [30] = experiment: Antimicrobial activity against Pseudomonas aeruginosa 29G6 tracheal isolates from mechanically ventilated chronic respiratory insufficiency patient
Pseudomonas aeruginosa [31] = experiment: Antimicrobial activity against Pseudomonas aeruginosa 29G8 tracheal isolates from mechanically ventilated chronic respiratory insufficiency patient
Pseudomonas aeruginosa [32] = experiment: Antimicrobial activity against Pseudomonas aeruginosa 12B2 tracheal isolates from mechanically ventilated chronic respiratory insufficiency patient
Pseudomonas aeruginosa [33] = experiment: Antimicrobial activity against Pseudomonas aeruginosa 2A5 tracheal isolates from mechanically ventilated tuberculosis patient
Pseudomonas aeruginosa [34] = experiment: Antimicrobial activity against Pseudomonas aeruginosa 15G2 tracheal isolates from mechanically ventilated chronic respiratory insufficiency patient
Pseudomonas aeruginosa [35] = experiment: Antimicrobial activity against Pseudomonas aeruginosa 12A7 tracheal isolates from mechanically ventilated chronic respiratory insufficiency patient
Pseudomonas aeruginosa [36] = experiment: Antimicrobial activity against Pseudomonas aeruginosa 65.36-1 tracheal isolates from mechanically ventilated tuberculosis patient
Pseudomonas aeruginosa [37] = experiment: Antimicrobial activity against Pseudomonas aeruginosa 19B6 tracheal isolates from mechanically ventilated chronic respiratory insufficiency patient
Pseudomonas aeruginosa [38] = experiment: Antimicrobial activity against Pseudomonas aeruginosa 1B9 tracheal isolates from mechanically ventilated tuberculosis patient
Pseudomonas aeruginosa [39] = experiment: Antimicrobial activity against Pseudomonas aeruginosa 5F8 tracheal isolates from mechanically ventilated chronic respiratory insufficiency patient
Pseudomonas aeruginosa [40] = experiment: Antimicrobial activity against Pseudomonas aeruginosa 22D2 tracheal isolates from mechanically ventilated chronic respiratory insufficiency patient
Pseudomonas aeruginosa [41] = experiment: Antimicrobial activity against Pseudomonas aeruginosa 22C5 tracheal isolates from mechanically ventilated chronic respiratory insufficiency patient
Pseudomonas aeruginosa [42] = experiment: Antimicrobial activity against Pseudomonas aeruginosa 3E2 tracheal isolates from mechanically ventilated chronic respiratory insufficiency patient
Pseudomonas aeruginosa [43] = experiment: Antimicrobial activity against Pseudomonas aeruginosa 8A2 tracheal isolates from mechanically ventilated chronic respiratory insufficiency patient
Pseudomonas aeruginosa [44] = experiment: Antimicrobial activity against Pseudomonas aeruginosa 65.68-1 tracheal isolates from mechanically ventilated tuberculosis patient
Pseudomonas aeruginosa [45] = experiment: Antimicrobial activity against Pseudomonas aeruginosa 2A3 tracheal isolates from mechanically ventilated tuberculosis patient
Pseudomonas aeruginosa [46] = experiment: Antimicrobial activity against Pseudomonas aeruginosa 8B11 tracheal isolates from mechanically ventilated chronic respiratory insufficiency patient
Pseudomonas aeruginosa [47] = experiment: Antimicrobial activity against Pseudomonas aeruginosa 19B3 tracheal isolates from mechanically ventilated chronic respiratory insufficiency patient
Pseudomonas aeruginosa [48] = experiment: Antimicrobial activity against Pseudomonas aeruginosa 65.68-4 tracheal isolates from mechanically ventilated tuberculosis patient
Pseudomonas aeruginosa [49] = experiment: Antimicrobial activity against Pseudomonas aeruginosa 19D9 tracheal isolates from mechanically ventilated chronic respiratory insufficiency patient
Pseudomonas aeruginosa [50] = experiment: Antimicrobial activity against Pseudomonas aeruginosa 2F6 tracheal isolates from mechanically ventilated tuberculosis patient
Pseudomonas aeruginosa [51] = experiment: Antimicrobial activity against Pseudomonas aeruginosa 2A2 tracheal isolates from mechanically ventilated tuberculosis patient
Pseudomonas aeruginosa [52] = experiment: Antimicrobial activity against Pseudomonas aeruginosa 24E5 tracheal isolates from mechanically ventilated chronic respiratory insufficiency patient
Pseudomonas aeruginosa [53] = experiment: Antimicrobial activity against Pseudomonas aeruginosa 29G7 tracheal isolates from mechanically ventilated chronic respiratory insufficiency patient
Pseudomonas aeruginosa [54] = experiment: Antimicrobial activity against Pseudomonas aeruginosa 22E1 tracheal isolates from mechanically ventilated chronic respiratory insufficiency patient
Pseudomonas aeruginosa [55] = experiment: Antimicrobial activity against Pseudomonas aeruginosa 19C7 tracheal isolates from mechanically ventilated chronic respiratory insufficiency patient
Pseudomonas aeruginosa [56] = experiment: Antimicrobial activity against Pseudomonas aeruginosa 2C1 tracheal isolates from mechanically ventilated tuberculosis patient
Pseudomonas aeruginosa [57] = experiment: Antimicrobial activity against Pseudomonas aeruginosa 65.36-3 tracheal isolates from mechanically ventilated tuberculosis patient
Pseudomonas aeruginosa [58] = experiment: Antimicrobial activity against Pseudomonas aeruginosa 2A9 tracheal isolates from mechanically ventilated tuberculosis patient
Pseudomonas aeruginosa [59] = experiment: Antimicrobial activity against Pseudomonas aeruginosa 65.38-3 tracheal isolates from mechanically ventilated tuberculosis patient

CO/N=C(\C(=O)N[C@@H]1C(=O)N2C(C(=O)[O-])=C(C[N+]3(C)CCCC3)CS[C@H]12)c1csc(N)n1
Activity (Pseudomonas aeruginosa [1]): Active | Activity (Pseudomonas aeruginosa [2]): Active | Activity (Pseudomonas aeruginosa [3]): Active | Activity (Pseudomonas aeruginosa [4]): Active | Activity (Pseudomonas aeruginosa [5]): Active | Activity (Pseudomonas aeruginosa [6]): Active | Activity (Pseudomonas aeruginosa [7]): Active | Activity (Pseudomonas aeruginosa [8]): Active | Activity (Pseudomonas aeruginosa [9]): Active | Activity (Pseudomonas aeruginosa [10]): inactive | Activity (Pseudomonas aeruginosa [11]): Active | Activity (Pseudomonas aeruginosa [12]): Active | Activity (Pseudomonas aeruginosa [13]): Active | Activity (Pseudomonas aeruginosa [14]): Active | Activity (Pseudomonas aeruginosa [15]): Active | Activity (Pseudomonas aeruginosa [16]): Active | Activity (Pseudomonas aeruginosa [17]): Active | Activity (Pseudomonas aeruginosa [18]): Active | Activity (Pseudomonas aeruginosa [19]): Active | Activity (Pseudomonas aeruginosa [20]): Active | Activity (Pseudomonas aeruginosa [21]): inactive | Activity (Pseudomonas aeruginosa [22]): Active | Activity (Pseudomonas aeruginosa [23]): Active | Activity (Pseudomonas aeruginosa [24]): Active | Activity (Pseudomonas aeruginosa [25]): Active | Activity (Pseudomonas aeruginosa [26]): Active | Activity (Pseudomonas aeruginosa [27]): Active | Activity (Pseudomonas aeruginosa [28]): Active | Activity (Pseudomonas aeruginosa [29]): Active | Activity (Pseudomonas aeruginosa [30]): Active | Activity (Pseudomonas aeruginosa [31]): Active | Activity (Pseudomonas aeruginosa [32]): Active | Activity (Pseudomonas aeruginosa [33]): Active | Activity (Pseudomonas aeruginosa [34]): Active | Activity (Pseudomonas aeruginosa [35]): Active | Activity (Pseudomonas aeruginosa [36]): Active | Activity (Pseudomonas aeruginosa [37]): Active | Activity (Pseudomonas aeruginosa [38]): inactive | Activity (Pseudomonas aeruginosa [39]): Active | Activity (Pseudomonas aeruginosa [40]): Active | Activity (Pseudomonas aeruginosa [41]): Active | Activity (Pseudomonas aeruginosa [42]): Active | Activity (Pseudomonas aeruginosa [43]): Active | Activity (Pseudomonas aeruginosa [44]): Active | Activity (Pseudomonas aeruginosa [45]): Active | Activity (Pseudomonas aeruginosa [46]): Active | Activity (Pseudomonas aeruginosa [47]): Active | Activity (Pseudomonas aeruginosa [48]): Active | Activity (Pseudomonas aeruginosa [49]): Active | Activity (Pseudomonas aeruginosa [50]): inactive | Activity (Pseudomonas aeruginosa [51]): Active | Activity (Pseudomonas aeruginosa [52]): Active | Activity (Pseudomonas aeruginosa [53]): Active | Activity (Pseudomonas aeruginosa [54]): Active | Activity (Pseudomonas aeruginosa [55]): Active | Activity (Pseudomonas aeruginosa [56]): inactive

NCC[C@H](O)C(=O)N[C@@H]1C[C@H](N)[C@@H](O[C@H]2O[C@H](CN)[C@@H](O)[C@H](O)[C@H]2O)[C@H](O)[C@H]1O[C@H]1O[C@H](CO)[C@@H](O)[C@H](N)[C@H]1O
Activity (Pseudomonas aeruginosa [1]): Active | Activity (Pseudomonas aeruginosa [2]): Active | Activity (Pseudomonas aeruginosa [3]): Active | Activity (Pseudomonas aeruginosa [4]): Active | Activity (Pseudomonas aeruginosa [5]): Active | Activity (Pseudomonas aeruginosa [6]): Active | Activity (Pseudomonas aeruginosa [7]): Active | Activity (Pseudomonas aeruginosa [8]): Active | Activity (Pseudomonas aeruginosa [9]): Active | Activity (Pseudomonas aeruginosa [57]): inactive | Activity (Pseudomonas aeruginosa [10]): inactive | Activity (Pseudomonas aeruginosa [12]): Active | Activity (Pseudomonas aeruginosa [13]): Active | Activity (Pseudomonas aeruginosa [14]): Active | Activity (Pseudomonas aeruginosa [15]): Active | Activity (Pseudomonas aeruginosa [58]): inactive | Activity (Pseudomonas aeruginosa [16]): Active | Activity (Pseudomonas aeruginosa [17]): Active | Activity (Pseudomonas aeruginosa [19]): Active | Activity (Pseudomonas aeruginosa [21]): inactive | Activity (Pseudomonas aeruginosa [22]): Active | Activity (Pseudomonas aeruginosa [24]): Active | Activity (Pseudomonas aeruginosa [25]): Active | Activity (Pseudomonas aeruginosa [26]): Active | Activity (Pseudomonas aeruginosa [27]): Active | Activity (Pseudomonas aeruginosa [28]): Active | Activity (Pseudomonas aeruginosa [29]): Active | Activity (Pseudomonas aeruginosa [30]): Active | Activity (Pseudomonas aeruginosa [31]): Active | Activity (Pseudomonas aeruginosa [32]): Active | Activity (Pseudomonas aeruginosa [34]): Active | Activity (Pseudomonas aeruginosa [35]): Active | Activity (Pseudomonas aeruginosa [59]): inactive | Activity (Pseudomonas aeruginosa [37]): Active | Activity (Pseudomonas aeruginosa [38]): inactive | Activity (Pseudomonas aeruginosa [39]): Active | Activity (Pseudomonas aeruginosa [40]): Active | Activity (Pseudomonas aeruginosa [41]): Active | Activity (Pseudomonas aeruginosa [42]): Active | Activity (Pseudomonas aeruginosa [43]): Active | Activity (Pseudomonas aeruginosa [44]): Active | Activity (Pseudomonas aeruginosa [45]): Active | Activity (Pseudomonas aeruginosa [46]): Active | Activity (Pseudomonas aeruginosa [47]): Active | Activity (Pseudomonas aeruginosa [48]): Active | Activity (Pseudomonas aeruginosa [49]): Active | Activity (Pseudomonas aeruginosa [50]): inactive | Activity (Pseudomonas aeruginosa [51]): Active | Activity (Pseudomonas aeruginosa [52]): Active | Activity (Pseudomonas aeruginosa [53]): Active | Activity (Pseudomonas aeruginosa [54]): Active | Activity (Pseudomonas aeruginosa [55]): Active | Activity (Pseudomonas aeruginosa [56]): inactive
